In US20120095058A1, “Method of preventing survival of retrovirally cells and of inhibiting formation of infectious retroviruses” (priority 2003, published 2012):

Tests used:
[1] = test system: HIV-1 infected H9 cells; assay: Apoptosis of HIV-1 infected H9 cells by TUNEL flow cytometry; format: cell-based, human; settings: for apoptosis at maximal concentration: H9 cells, IMP 400 μM, DES 20 μM; for initiation of apoptosis: HIV-1 infected lymphocyte cell line H9, dose dependence
Protocol: (§1) Methods: The drug deferiprone (DEF) and ciclopirox (CPX), known as DOHH inhibitors, were compared to the chelators 2-imidazoyl-4-methylphenol (IMP) and desferal (DES). Apoptosis of HIV-1 infected H9 cells, HPV-16 infected SiHa cells, and uninfected lymphocytes was analyzed by TUNEL flow cytometry. DOHH) activity was measured by metabolic labeling with 3H-spennidine.

[2] = molecular target: T1, deoxyhypusine hydroxylase (DOHH) (Homo sapiens, UniProt Q9BU89); assay: DOHH activity in HPV-16 infected SiHa cells by metabolic labeling with 3H-spermidine; format: cell-based; design: inhibition of DOHH: dose or concentration left out as unconfirmed; settings: for inhibition of DOHH: HPV-positive SiHa cells
T1 construct: endogenous in cells; host or cells: HIV-1 infected H9 cells
T1 sequence (Q9BU89 1-302): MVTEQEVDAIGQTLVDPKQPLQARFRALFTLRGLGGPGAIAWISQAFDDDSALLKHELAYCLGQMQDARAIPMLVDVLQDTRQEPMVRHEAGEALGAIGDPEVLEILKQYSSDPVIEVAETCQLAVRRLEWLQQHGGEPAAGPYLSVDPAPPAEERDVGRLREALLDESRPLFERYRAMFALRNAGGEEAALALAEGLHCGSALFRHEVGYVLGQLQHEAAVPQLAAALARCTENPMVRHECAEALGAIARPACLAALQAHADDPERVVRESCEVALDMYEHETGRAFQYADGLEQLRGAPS
Protocol: as §1

[3] = molecular target: T1, deoxyhypusine hydroxylase (DOHH); assay: DOHH activity in HIV-1 infected H9 cells by metabolic labeling with 3H-spermidine; format: cell-based; design: inhibition of DOHH: dose or concentration left out as unconfirmed; settings: for concentration with complete suppression of DOHH activity: H9 cells; for inhibition of cellular DOHH: HIV-1 infected H9 cells, dose dependence
Protocol: as §1
DOHH activity was measured by metabolic labeling with radioactive spermidine (see FIG. 2), followed by protein hydrolysis\ and amino acid analysis as reported (Hanauske-Abel et al., FEBS Left. 366, 92-98, 1995, which is hereby incorporated by reference). This finding corroborates the results obtained with purified DOHH (FIG. 3) and is consistent with the findings presented in FIG. 1.

[4] = test system: uninfected lymphocytes; assay: Apoptosis of uninfected lymphocytes by TUNEL flow cytometry; format: cell-based, human; settings: for apoptosis of lymphocytes harvested from healthy volunteers: exposed for 20 hours
Protocol: as §1

[5] = test system: HIV-1 molecular clone pNL4-3-Luc E-; assay: Firefly luciferase reporter in full-length HIV-1 molecular clone pNL4-3-Luc E-, 293T cells; format: cell-based, human; settings: 30 μM, 12 hours post-transfection, FIG. 1C left
Protocol: (§2) (C) Specificity of inhibition by CPX. Cells were co-transfected with 500 ng pNL4-3-Luc E-, or with 100 ng of HIV-1 LTR-firefly luciferase reporter plasmid and 20 ng of pRSV-Tat, together with 100 ng of CMV-Renilla luciferase reporter plasmid. Buffer (Control), 30 μM ciclopirox (CPX), or 30 μM Princeton 2 (P2) was added during transfection, and cells were harvested at 12 hours post-transfection for luciferase assay. Results are presented as the ratio of firefly luciferase to Renilla luciferase, normalized to the controls, with standard deviations indicated.
(§3) Cells and plasmids. 293T cells were grown in Dulbecco's Modified Eagle's medium with 10% fetal bovine serum. pBSIIKS+HIV(+80-341) was constructed by subcloning the PCR-amplified HIV-1 sequence corresponding to nucleotides +80 to +341 of the HIV molecular clone (pNL4-3-Luc E-) between the SmaI and HindIII sites of the pBluescriptllKS+ vector (Stratagene, Calif.). Plasmids pSP-rluc and pCMV-Renilla were purchased from Promega (Madison, Wis.). The plasmids pRSV-Tat and pLTR-firefly luciferase were described earlier (Hogue et al. MCB 2003). The HIV-1 molecular clone pNL4-3-Luc E-, in which part of the Nef gene is replaced by firefly luciferase and the envelope gene is mutated (Chen B. K., J. Virol. 1994), was generously supplied by Dr. D. Baltimore.
(§4) Gene expression assays. […]

[6] = test system: CMV-Renilla luciferase transcript; assay: RNase protection assay of CMV-Renilla luciferase transcript in transfected 293T cells; format: cell-based, human; settings: 30 μM, FIG. 1B
Protocol: (§5) (A, B) Inhibition of accumulation of spliced and unspliced HIV transcripts. Human 293 T cells were co-transfected with plasmids carrying the HIV-1 molecular clone (10 μg) and a CMV-Renilla luciferase construct (2 μg). Ciclopirox (CPX) or Princeton 2 (P2) were added to a final concentration of 30 μM 3 hours later. RNA was isolated from nuclear and cytoplasmic fractions at 15 hours after transfection. RNase protection assays used probes for the HIV-1 major splice donor site sequence (A), and Renilla luciferase (B). Arrows indicate the positions of protected probe fragments corresponding to unspliced (US) and spliced (S) HIV-1 RNA and Renilla luciferase (R-Luc). Lanes marked ‘Probe’ contain undigested probe RNA equivalent to 10% of the input to protection assays. The radioactivity of the protected bands, quantified with a phosphoimager using ImageQuant, is expressed in relative units.
(§6) Cells and plasmids. 293T cells were grown in Dulbecco's Modified Eagle's medium with 10% fetal bovine serum. pBSIIKS+HIV(+80-341) was constructed by subcloning the PCR-amplified HIV-1 sequence corresponding to nucleotides +80 to +341 of the HIV molecular clone (pNL4-3-Luc E-) between the SmaI and HindIII sites of the pBluescriptllKS+ vector (Stratagene, Calif.). Plasmids pSP-rluc and pCMV-Renilla were purchased from Promega (Madison, Wis.). […]

[7] = test system: patient-isolate of HIV-1; assay: HIV-1 p24 and RNA formation in fresh peripheral blood mononuclear cells acutely infected with a patient isolate; format: cell-based, human; settings: acutely infected PBMC
Source text: This system is considered a close model for the actual infection of a human being by ‘wild-type’ HIV-1.

[8] = test system: HIV-1 spliced and unspliced transcripts; assay: RNase protection assay of spliced and unspliced HIV-1 transcripts in transfected 293T cells; format: cell-based, human; settings: 30 μM, FIG. 1A
Protocol: as §5, §6

[9] = test system: HPV-16 infected SiHa cells; assay: Apoptosis of HPV-16 infected SiHa cells by TUNEL flow cytometry; format: cell-based, human
Protocol: as §1

[10] = test system: peripheral blood mononuclear cells acutely infected with HIV-1; assay: Apoptosis in fresh peripheral blood mononuclear cells acutely infected with a patient isolate of HIV-1; format: cell-based, human; settings: preferentially when acutely infected with HIV-1, FIG. 8
Source text: This effect is ascribed to the suppression of retroviral antiapoptotic proteins as part of the general suppression of retroviral protein synthesis, as exemplified by the decrease in p24 (FIG. 6).

[11] = test system: HIV-1; assay: p24 formation in HIV-1-infected H9 cells by immunoassay; format: cell-based, human; settings: FIG. 5
[12] = test system: HIV-1 LTR-firefly luciferase reporter; assay: HIV-1 LTR-firefly luciferase reporter with pRSV-Tat, 293T cells; format: cell-based, human; settings: 30 μM, compared to control and P2, FIG. 1C right
Protocol: as §2, §3, §4

[13] = molecular target: T2, purified DOHH (Homo sapiens, UniProt Q9BU89); assay: Inhibition of purified DOHH with labeled deoxyhypusine-containing eIF5A substrate; format: biochemical; settings: FIG. 3
T2 sequence (Q9BU89 1-302): T1 sequence (Q9BU89 1-302)
Protocol: The assay was conducted by using purified enzyme and offering deoxhypusine-containing, deoxhypusine-labeled eIF5A as substrae, plus the appropriate cofactors (see FIG. 2). Enzyme activity was assessed by determining the amount of mature, ie. radioactive hypusine-containing eIF5A via protein hydrolysis, followed by amino acid analysis.

[14] = test system: patient-isolate of HIV-1; assay: HIV-1 p24, RNA and proviral DNA in peripheral blood mononuclear cells chronically infected with a patient isolate; format: cell-based, human; settings: FIG. 9
Protocol: The double y-axis plot of FIG. 9 summarizes the effect of deferiprone on HIV protein synthesis (p24 [left y-axis]), HIV RNA synthesis (copies [right y-axis]), and the presence of HIV DNA, integrated as provirus into the genome of the infected host cells. The cell system and mode of infection used are the same as in FIGS. 6 to 8, i.e. freshly isolated peripheral blood mononuclear cells infected with a patient-isolate of HIV-1, except that the compound was added only after the full-blown infection had developed. The design requires the addition of uninfected cells very second day, so as to keep the infection from burning out. […] The near-eradication of provirus is attributed to the selective apoptotic ablation of HIV-infected cells by DOHH inhibitors (see FIG. 8).

Compound: 2-imidazoyl-4-methylphenol [IMP]
- apoptosis at maximal concentration [1]: failed to elicit apoptosis
- inhibition of DOHH [2]: uniformly ineffective
- inhibition of DOHH ([3]; HIV-positive H9 cells): uniformly ineffective

Compound: CC(=O)N(O)CCCCCNC(=O)CCC(=O)N(O)CCCCCNC(=O)CCC(=O)N(O)CCCCCN [DES]
- apoptosis at maximal concentration [1]: failed to elicit apoptosis
- apoptosis of lymphocytes harvested from healthy volunteers [4]: failed to respond with apoptosis

Compound: Cc1cc(C2CCCCC2)n(O)c(=O)c1 [ciclopirox, 6-cyclohexyl-l-hydroxy-4-methyl-2(1H)-pyridone]
- expression of firefly luciferase reporter encoded in full-length genomic HIV-1 clone [5]: distinctly more inhibitory effect than P2
- expression of firefly luciferase reporter encoded in full-length genomic HIV-1 clone ([5]; listed as Ciclopirox): reduces gene expression
- apoptosis, share of all cells ([1]; 40 μM, 18 hours (overnight), HIV-1 infected H9 cells): more than 30%
- initiation of apoptosis [1]: dose-dependent initiation of apoptosis
- initiation of apoptosis ([1]; listed as CPX): triggered dose-dependent apoptosis
- potency in causing a very similar spectrum of effects ([1]; comparison compound class not given): about ten times more potent
- transcript accumulation encoded by cytomegalovirus (CMV) [6]: does not affect transcript accumulation
- formation of retroviral p24 protein ([7]; FIG. 6): efficient in suppressing
- formation of retroviral RNA, viral load ([7]; PCR, FIG. 7): efficient in suppressing
- accumulation of spliced and unspliced HIV-1 transcripts [8]: selectively suppresses
- apoptosis in native human lymphocytes not infected by HIV-1 [4]: does not trigger apoptosis
- apoptosis of lymphocytes harvested from healthy volunteers [4]: failed to respond with apoptosis
- apoptosis in HPV infected human keratinocytes [9]: does not trigger apoptosis
- apoptosis in SiHa cells ([9]; 40 μM, even after 120 hours): did not initiate apoptosis
- DOHH activity of SiHa cells ([2]; 40 μM): totally suppressed
- inhibition of DOHH ([2]; dose dependence): inhibited DOHH
- apoptosis in PBMC [10]: triggers apoptosis
- retroviral protein synthesis assessed via p24 [11]: suppressed retroviral protein synthesis
- concentration with complete suppression of DOHH activity [3]: 40 µM
- inhibition of cellular DOHH [3]: dose-dependent inhibition
- inhibition of cellular DOHH ([3]; listed as (2)): dose-dependent inhibition
- inhibition of cellular DOHH ([3]; listed as CPX): inhibited DOHH
- luciferase gene expression from HIV-1 LTR reporter lacking RRE [12]: did not reduce luciferase gene expression
- inhibition of purified DOHH [13]: disctinctly more susceptible to inhibition

Compound: Cc1c(O)c(=O)ccn1C [deferiprone]
- initiation of apoptosis [1]: triggered dose-dependent apoptosis
- HIV protein synthesis (p24) ([14]; compound added after full-blown infection): undetectable
- HIV DNA integrated as provirus ([14]; end of experiment): at best a trace of integrated provirus
- HIV RNA ([14]; over the days after p24 became undetectable): dropped to the limit of detection
- apoptosis of lymphocytes harvested from healthy volunteers [4]: failed to respond with apoptosis
- inhibition of DOHH ([2]; dose dependence): inhibited DOHH
- concentration with complete suppression of DOHH activity [3]: 200 µM
- inhibition of cellular DOHH [3]: inhibited DOHH
